Assay results reported in patent US20140045823A1 (Neurocrine Biosciences, Inc., priority 2012, published 2014).

The compounds below were run against T1, mutant form of the human GPR119 receptor (Homo sapiens, UniProt Q8TDV5, S329A/T327A) (assay: LANCE cAMP-384 assay in HEK293 cells stably expressing a mutant form of the human GPR119 receptor). Settings: mutant human GPR119, LANCE cAMP-384 Kit, 20 min at 37° C., read-out: EC50 (cAMP accumulation).
T1 construct: expressed in transfected cells
T1 sequence (Q8TDV5 with tags, fused parts or gaps T327A/S329A): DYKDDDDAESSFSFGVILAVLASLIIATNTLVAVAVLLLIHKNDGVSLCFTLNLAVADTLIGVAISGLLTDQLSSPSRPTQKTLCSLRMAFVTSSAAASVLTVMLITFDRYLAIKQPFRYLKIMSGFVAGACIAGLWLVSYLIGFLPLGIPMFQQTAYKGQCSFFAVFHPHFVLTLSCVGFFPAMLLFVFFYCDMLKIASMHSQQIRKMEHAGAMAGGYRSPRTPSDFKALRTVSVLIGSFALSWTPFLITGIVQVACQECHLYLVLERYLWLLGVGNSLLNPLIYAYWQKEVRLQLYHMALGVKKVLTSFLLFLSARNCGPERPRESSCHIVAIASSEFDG
Type: cell-based
Method: Quantitative detection of cAMP accumulation from cells expressing human GPR119 receptor is achieved using Perkin Elmer's LANCE cAMP-384 Kit (Cat#AD0264) according to the manufacturer's protocol. Briefly, HEK293 cells stably expressing a mutant form of the human GPR119 receptor as assay tool (Methionine 1 replaced with the amino acid sequence […], and T327 & S329 changed to alanines; SEQ ID No. 1) are grown to 50-70% confluency in cell culture media (DMEM, 10% heat inactivated Fetal Bovine Serum, 50 I.U./mL penicillin, 50 μg/mL streptomycin, 10 mM HEPES, 20 μg/mL G418 Sulfate). On the day of the assay, GPR119 stable HEK293 cells are lifted from the tissue culture plate and 1000 cells/well are incubated along with various concentrations of test compounds for 20 min at 37° C. Detection Buffer (50 mM HEPES, 10 mM calcium chloride, 0.35% Triton X-100, 1 mg/mL BSA) containing cAMP-specific antibody is then added to all wells and allowed to equilibrate in the dark for 10 minutes at room temperature. Upon equilibration, Detection Buffer containing europium-labeled cAMP tracer complex is added to all wells and allowed to react for 1 hour at room temperature. After 1 hour, bound europium-labeled cAMP tracer is measured using a Perkin Elmer Envision plate reader. The quantity of cAMP generated in each well is derived from a standard curve. EC50 is determined using nonlinear regression analysis of the cAMP values over a range of agonist concentration (12 points spanning the range from 30 μM to […]).

| Structure (SMILES) | EC50 |
| --- | --- |
| CC(C)OC(=O)N1CCC(N(C(=O)c2cnc(-n3cncn3)cn2)C2CC2)CC1 [Example 253] | 435 nM |
| Cc1ncn(-c2cnc(C(=O)N(C3CC3)C3CCN(C(=O)OC(C)C)CC3)cn2)n1 [Example 255] | 1550 nM |
| Cc1nccn1-c1ncc(C(=O)N(C2CC2)C2CCN(C(=O)OC(C)C)CC2)cn1 [Example 256] | 265 nM |
| Cc1ncnn1-c1ccc(C(=O)N(C2CC2)[C@@H]2CCN(C(=O)OC(C)C)C[C@@H]2F)cn1 [Example 252] | 193 nM |
| CC(C)OC(=O)N1CC[C@@H](N(C(=O)c2cnc(-n3cncn3)cn2)C2CC2)[C@@H](F)C1 [Example 248] | 54 nM |
| Cc1nccn1-c1ncc(C(=O)N(C2CC2)[C@H]2CCN(C(=O)OC(C)C)C[C@H]2F)cn1 [Example 251] | 587 nM |
| Cc1nccn1-c1ncc(C(=O)N(C2CC2)[C@@H]2CCN(C(=O)OC(C)C)C[C@@H]2F)cn1 [Example 250] | 45 nM |
| Cc1nccn1-c1cnc(C(=O)N(C2CC2)C2CCN(C(=O)OC(C)C)CC2)cn1 [Example 254] | 518 nM |
| CC(C)OC(=O)N1CC[C@H](N(C(=O)c2cnc(-n3cncn3)cn2)C2CC2)[C@H](F)C1 [Example 257] | 801 nM |
| Cc1nnnn1-c1ccc(C(=O)N(C2CC2)C2CCN(C(=O)OC(C)C)CC2F)cn1 (single isomer, unassigned) [Example 249] | 146 nM |
